Earlier results, collected in US20170049836A1, “COMPOSITIONS COMPRISING BOTANICALS, INCLUDING THE USE AND METHOD OF USE THEREOF” (FEM MED FORMULAS LIMITED PARTNERSHIP, priority 2010, published 2017).
Where two headings read alike, the source gives them in different places.

How the values were obtained:
[1] = test system: estrogen receptor-positive breast cancer cells
[2] = test system: ratio of 2-OHE to 16-αOHE

SMILES	effect on cell growth / proliferation [1]	women with sustained increase in ratio of 2-OHE to 16-αOHE ([2]; 17 of 20 women, 200 or 400 mg/day) [%]	average increase in 2-OHE:16-αOHE ratio ([2]; 20 women, 400 mg daily) [%]	increase in 2-OHE:16-αOHE ratio, overall ([2]; 200-400 mg, regular consumption, vast majority of women)	average increase in ratio of 2-OHE to 16-αOHE ([2]; 200 or 400 mg/day, over the course of the trial) [%]	change in 2-OHE:16-αOHE ratio ([2]; all 20 women, 300 or 400 mg, 4 weeks)	average increase in 2-OHE:16-αOHE ratio ([2]; non-obese women, same trial) [%]	average increase in 2-OHE:16-αOHE ratio ([2]; obese women (four out of five), two-month period) [%]
C[C@]12CC[C@@H]3c4cc(O)c(O)cc4CC[C@H]3[C@@H]1CCC2=O [2-OHE, 2-hydroxyestrone]	no effect on cell growth							
C[C@]12CC[C@@H]3c4ccc(O)cc4CC[C@H]3[C@@H]1C[C@@H](O)C2=O [16-αOHE, 16-αhydrxyestrone]	stimulates proliferation							
OCc1c[nH]c2ccccc12 [I3C, Indole-3-carbinol]		85	65	approx. 60%	44	significantly increased	38	93
